# Experiments:
# Argentine ants [1] = assay: Experiment #1: field attraction of ants from an existing trail to a pheromone-sprayed sand patch; assay type: in vivo, Linepithema humile
# Experimental: Experiment #1 was conducted to observe would synthetic trail pheromone spray deposit attract the ants from an existing trail? The study was conducted in the biological control grove at the University of California, Riverside, in April 2012. The site supports a large population of Argentine ants, primarily because of the absence of chemical insecticide use and the existence of honeydew-producing insects in the citrus trees. Five different trails of Argentine ants were located, which were relatively straight and at least 30-cm long, and originating from different nests. By using these trails as “existing trails,” tests were performed to see if the “pheromone assisted technique” would attract ants from the existing trails. For the pheromone treatment, two patches of sand were made, one on each side of the existing trail by evenly spreading 52.5 grams (g) of sand in a square (20 by 20 cm). The distance between two patches was about 5 cm. One patch served as a treatment, and the other one served as a control. For the treatment, 1 mg of the synthetic pheromone compound [(Z)-9-hexadecenal] dissolved in 1 ml of ethyl alcohol was mixed with 500 ml of deionized water. […]
# Each sand patch was treated with four sprays (each spray targeting 10 by 10 cm areas on one corner). […] The numbers of ants on the 20 by 20-cm sand patches were counted at 2 and 4 min post-treatment using the photographs. […]
# Argentine ants [2] = assay: Experiment #2: field attraction of ants from nest entrance and nearby trails to a pheromone-sprayed sand patch; assay type: in vivo, Linepithema humile
# Experimental: Experiment #2 was conducted to observe would synthetic trail pheromone spray deposit attract the ants from a nest entrance and nearby trails? The study was conducted in the biological control grove at the University of California, Riverside, in Apr. 23, 2012. Nest entrances of Argentine ant colonies were located, which had active trails associated with them (one nest entrance per nest). By using the nest entrance and trails associated with the nest entrance, the pheromone assisted technique” was tested to see if it would attract ants from the nest entrance and nearby trails. For the pheromone treatment, two patches were made of sand on both sides of the nest entrance by evenly spreading 52.5 g of sand in a square (20 by 20 cm). The distance between the two patches was about 5 cm. The method and rate of application were identical with those of experiment #1.
# Both sand patches were photographed at 1, 2, and 3 min after application of sprays. The study was replicated ten times by using a different nest entrance for each replicate. The numbers of ants on the 20 by 20-cm sand patches were counted at 1, 2, and 3 minute post-treatment using the photographs. The average values were compared between treatment and control with a paired T-test (one-sided, Analytical Software 2008). […]
# Argentine ants [3] = assay: Experiment #3: laboratory colony mortality after spray applied away from the ant nest; assay type: in vivo, Linepithema humile; conditions: 0.01% fipronil and/or approx. 12 ng per cm^2 (Z)-9-hexadecenal; 3 ml on 491 cm^2 sand; colony about 731 ants; n=5-6
# Experimental: Experiment #3 was conducted to observe would co-application of synthetic trail pheromone improve the efficacy of fipronil insecticide spray applied away from the ant nest? A laboratory study was conducted to determine if the efficacy of an insecticide spray (fipronil) can be improved by adding with a synthetic attractant trail pheromone. Argentine ants were collected from a citrus grove (biological control grove) on the University of California, Riverside, campus. Ant nests were excavated from the ground and transported to a laboratory chamber where they were extracted from the soil. Laboratory stock colonies were maintained in plastic boxes (26.5 by 30 by 10 cm) with the inner sides coated with Teflon™ Fluoropolymer resin, type 30, DuPont Polymers) to prevent ants from escaping. Each colony was provided with two or three artificial nests constructed from plaster-filled petri dishes (9 cm in diameter by 1.5 cm in depth) formed with a 5-cm-diameter by 1-cm-deep cylindrical area in the center of the dish to serve as a nesting space. […]
# Three different spray preparations were tested: (a) pheromone+fipronil, (b) fipronil only, and (c) pheromone only. […] The dead ants were removed from the colony box and counted daily. […]
# [4] = system: Argentine ant populations; conditions: relatively large quantities, stand-alone treatment, field; cited from earlier work
SMILES,"number of ants on treated sand patch relative to control patch (Argentine ants [1]; approx. 12 ng per cm^2, paired T-test P=0.033)","average number of ants on the 20 by 20-cm sand patch (mean±SEM) (Argentine ants [1]; approx. 12 ng per cm^2 on sand, counts at 2 and 4 min post-treatment averaged, 5 replicates, existing trail)","number of ants on treated sand patch relative to control patch (Argentine ants [2]; approx. 12 ng per cm^2, paired T-test P<0.001)","average number of ants on the 20 by 20-cm sand patch (mean±SEM) (Argentine ants [2]; approx. 12 ng per cm^2 on sand, counts at 1, 2 and 3 min post-treatment, 10 replicates, nest entrance and nearby trails)",cumulative number of dead ants at day 7 post-treatment (mean±SEM) (Argentine ants [3]),impact on Argentine ant populations [4]
CCCCCC/C=C\CCCCCCCC=O [(Z)-9-hexadecenal],more than two times higher,10.4±4.0,more than five times higher,18.1±3.0,65.8±11.0,negligible impact
"N#Cc1nn(-c2c(Cl)cc(C(F)(F)F)cc2Cl)c(N)c1[S+]([O-])C(F)(F)F (stereo not shown) [fipronil only, fipronil]",–,–,–,–,291±27.1,–
